The source of these data is patent publication US12415815B2, “Pyrido[2,3-e]oxazine derivatives as agricultural chemicals” (GLOBACHEM NV, priority 2020, dated 2025).

Holding throughout (type): cell-based
The test system of test [1] is Zymoseptoria tritici. The test can be described thus: Fungicidal activity screen in amended agar, 96 well plates, Zymoseptoria tritici. To be noted: 1% potato dextrose agar, 10,000 spores/mL, 20, 2, 0.2 and 0.02 ppm, room temperature (18° C.), assessed after 7 days; for EC50: Zymoseptoria tritici, 168 h, read-out: Zymoseptoria (fungal growth vs DMSO controls, EC50 ranking). The protocol:
(§1) Compounds were screened in 96 well plates with 10 compounds per plate. Each compound was screened using agar amended to 20, 2, 0.2 and 0.02 ppm of the test material. Proline at 50 and 10 ppm and 0.2% DMSO were used respectively as positive and negative controls. Each test concentration and standard were tested twice on a plate.
(§2) Compounds were screened against the following three fungal pathogens—Botrytis cinerea, Alternaria alternata and Zymoseptoria tritici. The agar used in the test varied depending on the pathogen with Medium N used for B. cinerea and A. alternata and 1% potato dextrose agar for Z. tritici. For each pathogen sufficient spores were added to the appropriate agar to give 1,000 spores/mL agar of A. alternata, 5,000 spores/ml agar of B. cinerea and 10,000 spores/mL agar of Z. tritici.
(§3) A ×10 stock solution in 2% DMSO was produced for each dose i.e. 200, 20, 2 and 0.2 ppm, and 10 μl of this added to the appropriate wells on the plate. An equivalent amount of 2% DMSO and Proline stock at 500 and 100 ppm were added for the controls. To each well, 90 μl of the appropriate agar spore suspension was added to give the final well concentrations outlined in the first paragraph.
(§4) Plates were incubated at room temperature (18° C.) and assessed after: • a) 3 to 4 days A. alternata and B. cinerea • b) 7 days for Z. tritici
(§5) The amount of fungal growth in each well was compared to the DMSO controls and scored according to the following key: • A—EC50<2 ppm • B—2≤EC50<20 • C—EC50≥20 • D—No activity detected at the highest dose tested • NT—Not tested

Test [2] deals with Botrytis cinerea. The test can be described thus: Fungicidal activity screen in amended agar, 96 well plates, Botrytis cinerea. To be noted: Medium N agar, 5,000 spores/ml, 20, 2, 0.2 and 0.02 ppm, room temperature (18° C.), assessed after 3 to 4 days, read-out: Botrytis (fungal growth vs DMSO controls, EC50 ranking). The protocol: as §1, §2, §3, §4, §5
The subject of test [3] is Alternaria alternata. The test can be described thus: Fungicidal activity screen in amended agar, 96 well plates, Alternaria alternata. Conditions: Medium N agar, 1,000 spores/mL, 20, 2, 0.2 and 0.02 ppm, room temperature (18° C.), assessed after 3 to 4 days, read-out: Alternaria (fungal growth vs DMSO controls, EC50 ranking). As to the method: as §1, §2, §3, §4, §5

In brackets after ≈: the same amount, converted by molar mass. Some results are limits rather than exact numbers.

“3-(7-chloro-6-(2-chlorophenoxy) benzo[d]thiazol-2-yl)-8-methoxy-2- thioxo-2,3-dihydro-4H-pyrido[2,3- e][1,3]oxazin-4-one [Example 35]”: the “Zymoseptoria (fungal growth vs DMSO controls, EC50 ranking)” value in test [1] is reported as “A (EC50<2 ppm)”.

What is called EC50 is the midpoint of the concentration-response curve. `COc1ccnc2c(=O)n(-c3nc4ccc(Oc5ccc(F)cc5Cl)cc4s3)c(=O)oc12` [Example 1, 3-(6-(2-Chloro-4-fluorophenoxy)benzo[d]thiazol-2-yl)-8-methoxy-2H-pyrido[2,3-e][1,3]oxazine-2,4(3H)-dione]: the EC50 in test [2] is 2 to 20 µg/mL (≈ 4.24 to 42.4 µM); in test [1], < 2 µg/mL; in test [3], 2 to 20 µg/mL (≈ 4.24 to 42.4 µM).

As to `COc1ccnc2c(=O)n(-c3nc4ccc(Oc5cncc(C(F)(F)F)c5)cc4s3)c(=O)oc12` [Example 2, 8-Methoxy-3-(6-((5-(trifluoromethyl)pyridin-3-yl)oxy)benzo[d]thiazol-2-yl)-2H-pyrido[2,3-e][1,3]oxazine-2,4(3H)-dione], the EC50 in test [2] is 2 to 20 µg/mL (≈ 4.09 to 40.9 µM); in test [1], < 2 µg/mL; in test [3] it was 2 to 20 µg/mL (≈ 4.09 to 40.9 µM).

Consider `COc1ccnc2c(=O)n(-c3nc4ccc(Oc5ccc(F)cc5)cc4s3)c(=O)oc12` [Example 3, 3-(6-(4-Fluorophenoxy)benzo[d]thiazol-2-yl)-8-methoxy-2H-pyrido[2,3-e][1,3]oxazine-2,4(3H)-dione], for which the EC50 is 2 to 20 µg/mL (≈ 4.57 to 45.7 µM) in test [2], < 2 µg/mL in test [1] and 2 to 20 µg/mL (≈ 4.57 to 45.7 µM) in test [3].

Regarding `COc1ccnc2c(=O)n(-c3nc4ccc(Oc5ccccc5)cc4s3)c(=O)oc12` [Example 4, 8-Methoxy-3-(6-phenoxybenzo[d]thiazol-2-yl)-2H-pyrido[2,3-e][1,3]oxazine-2,4(3H)-dione], the EC50 in test [2] is 2 to 20 µg/mL (≈ 4.77 to 47.7 µM); in test [1], < 2 µg/mL; in test [3], 2 to 20 µg/mL (≈ 4.77 to 47.7 µM).

In the case of `COc1ccnc2c(=O)n(-c3nc4ccc(Oc5ccccc5Cl)cc4s3)c(=O)oc12` [Example 5, 3-(6-(2-Chlorophenoxy)benzo[d]thiazol-2-yl)-8-methoxy-2H-pyrido[2,3-e][1,3]oxazine-2,4(3H)-dione], the EC50 in test [2] was 2 to 20 µg/mL (≈ 4.41 to 44.1 µM); in test [1], < 2 µg/mL; in test [3] it was 2 to 20 µg/mL (≈ 4.41 to 44.1 µM).

As for `COc1ccnc2c(=O)n(-c3nc4cc(-c5ccccc5Cl)c(Oc5ccc(F)cc5Cl)cc4s3)c(=S)oc12` [Example 12, 3-(6-(2-Chloro-4-fluorophenoxy)-5-(2-chlorophenyl)benzo[d]thiazol-2-yl)-8-methoxy-2-thioxo-2,3-dihydro-4H-pyrido[2,3-e][1,3]oxazin-4-one], the EC50 in test [1] was < 2 µg/mL.

Turning to `COc1ccnc2c(=O)n(-c3nc4c(-c5ccccc5)cc(Oc5ccc(F)cc5Cl)cc4s3)c(=S)oc12` [Example 13, 3-(6-(2-Chloro-4-fluorophenoxy)-4-phenylbenzo[d]thiazol-2-yl)-8-methoxy-2-thioxo-2,3-dihydro-4H-pyrido[2,3-e][1,3]oxazin-4-one], the EC50 in test [1] was < 2 µg/mL.

Consider `COc1ccnc2c(=O)n(-c3nc4cnc(Oc5ccc(F)cc5Cl)nc4s3)c(=S)oc12` [Example 14, 3-(5-(2-Chloro-4-fluorophenoxy)thiazolo[5,4-d]pyrimidin-2-yl)-8-methoxy-2-thioxo-2,3-dihydro-4H-pyrido[2,3-e][1,3]oxazin-4-one], for which the 50% effective concentration (EC50) in test [1] was < 2 µg/mL.

With `COc1ccnc2c(=O)n(-c3nc4ccc(C(=O)OC(C)C)cc4s3)c(=S)oc12` [Example 15, Isopropyl 2-(8-methoxy-4-oxo-2-thioxo-2H-pyrido[2,3-e][1,3]oxazin-3(4H)-yl)benzo[d]thiazole-6-carboxylate], in test [1], the EC50 was < 2 µg/mL.

`COc1ccnc2c(=O)n(-c3nc4ccc(N(C)c5ccc(F)cc5Cl)cc4s3)c(=S)oc12` [Example 16, 3-(6-((2-Chloro-4-fluorophenyl)(methyl)amino)benzo[d]thiazol-2-yl)-8-methoxy-2-thioxo-2,3-dihydro-4H-pyrido[2,3-e][1,3]oxazin-4-one]: the EC50 in test [1] is < 2 µg/mL.

On to `COc1ccnc2c(=O)n(-c3nc4ccc(Oc5ccccc5Cl)cc4s3)c(=S)oc12` [Example 18, 3-(6-(2-Chlorophenoxy)benzo[d]thiazol-2-yl)-8-methoxy-2-thioxo-2,3-dihydro-4H-pyrido[2,3-e][1,3]oxazin-4-one], for which the EC50 in test [1] is < 2 µg/mL.

In the case of `COc1ccnc2c(=O)n(-c3nc4ccc(C(=O)c5ccccc5)cc4s3)c(=S)oc12` [Example 19, 3-(6-Benzoylbenzo[d]thiazol-2-yl)-8-methoxy-2-thioxo-2,3-dihydro-4H-pyrido[2,3-e][1,3]oxazin-4-one], in test [1], the concentration for a half-maximal effect (EC50) was in the range of 2 to 20 µg/mL (≈ 4.47 to 44.7 µM).

On to `COc1ccnc2c(=O)n(-c3nc4ccc(Cc5ccccc5)cc4s3)c(=S)oc12` [Example 24, 3-(6-Benzylbenzo[d]thiazol-2-yl)-8-methoxy-2-thioxo-2,3-dihydro-4H-pyrido[2,3-e][1,3]oxazin-4-one], for which the EC50 in test [1] lay within 2 to 20 µg/mL (≈ 4.61 to 46.1 µM).

Regarding `COc1ccnc2c(=O)n(-c3nc4ccc(Oc5ccc(Cl)cc5)cc4s3)c(=S)oc12` [Example 25, 3-(6-(4-Chlorophenoxy)benzo[d]thiazol-2-yl)-8-methoxy-2-thioxo-2,3-dihydro-4H-pyrido[2,3-e][1,3]oxazin-4-one], the EC50 in test [1] is < 2 µg/mL.

Take `COc1ccnc2c(=S)n(-c3nc4ccc(Oc5ccccc5Cl)cc4s3)c(=S)oc12` [Example 26, 3-(6-(2-Chlorophenoxy)benzo[d]thiazol-2-yl)-8-methoxy-2H-pyrido[2,3-e][1,3]oxazine-2,4(3H)-dithione]: the concentration giving a half-maximal response (EC50) in test [1] was < 2 µg/mL.

`COc1ccccc1Oc1ccc2nc(-n3c(=S)oc4c(OC)ccnc4c3=O)sc2c1` [Example 30, 8-methoxy-3-(6-(2-methoxyphenoxy)benzo[d]thiazol-2-yl)-2-thioxo-2,3-dihydro-4H-pyrido[2,3-e][1,3]oxazin-4-one]: the EC50 in test [1] was < 2 µg/mL.

For `COc1ccnc2c(=O)n(-c3nc4ccc(N(C)c5ccccc5Cl)cc4s3)c(=S)oc12` [Example 31, 3-(6-((2-chlorophenyl)(methyl)amino)benzo[d]thiazol-2-yl)-8-methoxy-2-thioxo-2,3-dihydro-4H-pyrido[2,3-e][1,3]oxazin-4-one], the 50% effective concentration (EC50) in test [1] is < 2 µg/mL.

Regarding `COc1ccnc2c(=O)n(-c3nc4ccc(N(C)c5ccc(Cl)cc5)cc4s3)c(=S)oc12` [Example 32, 3-(6-((4-chlorophenyl)(methyl)amino)benzo[d]thiazol-2-yl)-8-methoxy-2-thioxo-2,3-dihydro-4H-pyrido[2,3-e][1,3]oxazin-4-one], the EC50 in test [1] was < 2 µg/mL.

For the molecule `COc1ccnc2c(=O)n(-c3nc4ccc(N(C)c5cncc(Cl)c5)cc4s3)c(=S)oc12` [Example 33, 3-(6-((5-chloropyridin-3-yl)(methyl)amino)benzo[d]thiazol-2-yl)-8-methoxy-2-thioxo-2,3-dihydro-4H-pyrido[2,3-e][1,3]oxazin-4-one], the 50% effective concentration (EC50) in test [1] is 2 to 20 µg/mL (≈ 4.13 to 41.3 µM).

As to `COc1ccnc2c(=O)n(-c3nc4ccc(Sc5ccccc5Cl)cc4s3)c(=S)oc12` [Example 34, 3-(6-((2-chlorophenyl)thio)benzo[d]thiazol-2-yl)-8-methoxy-2-thioxo-2,3-dihydro-4H-pyrido[2,3-e][1,3]oxazin-4-one], the EC50 in test [1] is < 2 µg/mL.

As for `COCCOc1ccccc1Oc1ccc2nc(-n3c(=S)oc4c(OC)ccnc4c3=O)sc2c1` [Example 37, 8-methoxy-3-(6-(2-(2-methoxyethoxy)phenoxy)benzo[d]thiazol-2-yl)-2-thioxo-2,3-dihydro-4H-pyrido[2,3-e][1,3]oxazin-4-one], the 50% effective concentration (EC50) in test [1] was 2 to 20 µg/mL (≈ 3.92 to 39.2 µM).

`COc1ccnc2c(=O)n(-c3nc4ccc(OCC(C)C)cc4s3)c(=S)oc12` [Example 43, 3-(6-isobutoxybenzo[d]thiazol-2-yl)-8-methoxy-2-thioxo-2,3-dihydro-4H-pyrido[2,3-e][1,3]oxazin-4-one]: the EC50 in test [1] was < 2 µg/mL.

On to `COc1ccnc2c(=O)n(-c3nc4ccc(Oc5ccccc5OCC5CC5)cc4s3)c(=S)oc12` [Example 44, 3-(6-(2-(cyclopropylmethoxy)phenoxy)benzo[d]thiazol-2-yl)-8-methoxy-2-thioxo-2,3-dihydro-4H-pyrido[2,3-e][1,3]oxazin-4-one], for which the EC50 in test [1] is 2 to 20 µg/mL (≈ 3.96 to 39.6 µM).

For `COc1ccccc1Sc1ccc2nc(-n3c(=S)oc4c(OC)ccnc4c3=O)sc2c1` [Example 45, 8-methoxy-3-(6-((2-methoxyphenyl)thio)benzo[d]thiazol-2-yl)-2-thioxo-2,3-dihydro-4H-pyrido[2,3-e][1,3] oxazin-4-one], the EC50 in test [1] was 2 to 20 µg/mL (≈ 4.15 to 41.5 µM).

Regarding `COc1ccnc2c(=O)n(-c3nc4ccc(Oc5ccc(C(F)(F)F)cc5)cc4s3)c(=S)oc12` [Example 46, 8-methoxy-2-thioxo-3-(6-(4-(trifluoromethyl)phenoxy)benzo[d]thiazol-2-yl)-2,3-dihydro-4H-pyrido[2,3-e][1,3]oxazin-4-one], the EC50 in test [1] is < 2 µg/mL.
